From paper PMC11345841, “Exploring 2-Sulfonylpyrimidine Warheads as Acrylamide Surrogates for Targeted Covalent Inhibition: A BTK Story” (Journal of Medicinal Chemistry, 2024)
Like-named read-outs stand apart in the source and are kept apart here.

What was measured:
[1] = target: T1, SRC (Homo sapiens, UniProt P12931); assay: KINOMEscan ScanTK; type: binding
T1 construct: purchased Eurofins DiscoverX KINOMEscan (scanTK)

[2] = target: T2, EGFR(T790M) (Homo sapiens, UniProt P00533, T790M); assay: KINOMEscan ScanTK; type: binding
T2 construct: purchased Eurofins DiscoverX KINOMEscan (scanTK)
T2 sequence (P00533 25-1210 T790M): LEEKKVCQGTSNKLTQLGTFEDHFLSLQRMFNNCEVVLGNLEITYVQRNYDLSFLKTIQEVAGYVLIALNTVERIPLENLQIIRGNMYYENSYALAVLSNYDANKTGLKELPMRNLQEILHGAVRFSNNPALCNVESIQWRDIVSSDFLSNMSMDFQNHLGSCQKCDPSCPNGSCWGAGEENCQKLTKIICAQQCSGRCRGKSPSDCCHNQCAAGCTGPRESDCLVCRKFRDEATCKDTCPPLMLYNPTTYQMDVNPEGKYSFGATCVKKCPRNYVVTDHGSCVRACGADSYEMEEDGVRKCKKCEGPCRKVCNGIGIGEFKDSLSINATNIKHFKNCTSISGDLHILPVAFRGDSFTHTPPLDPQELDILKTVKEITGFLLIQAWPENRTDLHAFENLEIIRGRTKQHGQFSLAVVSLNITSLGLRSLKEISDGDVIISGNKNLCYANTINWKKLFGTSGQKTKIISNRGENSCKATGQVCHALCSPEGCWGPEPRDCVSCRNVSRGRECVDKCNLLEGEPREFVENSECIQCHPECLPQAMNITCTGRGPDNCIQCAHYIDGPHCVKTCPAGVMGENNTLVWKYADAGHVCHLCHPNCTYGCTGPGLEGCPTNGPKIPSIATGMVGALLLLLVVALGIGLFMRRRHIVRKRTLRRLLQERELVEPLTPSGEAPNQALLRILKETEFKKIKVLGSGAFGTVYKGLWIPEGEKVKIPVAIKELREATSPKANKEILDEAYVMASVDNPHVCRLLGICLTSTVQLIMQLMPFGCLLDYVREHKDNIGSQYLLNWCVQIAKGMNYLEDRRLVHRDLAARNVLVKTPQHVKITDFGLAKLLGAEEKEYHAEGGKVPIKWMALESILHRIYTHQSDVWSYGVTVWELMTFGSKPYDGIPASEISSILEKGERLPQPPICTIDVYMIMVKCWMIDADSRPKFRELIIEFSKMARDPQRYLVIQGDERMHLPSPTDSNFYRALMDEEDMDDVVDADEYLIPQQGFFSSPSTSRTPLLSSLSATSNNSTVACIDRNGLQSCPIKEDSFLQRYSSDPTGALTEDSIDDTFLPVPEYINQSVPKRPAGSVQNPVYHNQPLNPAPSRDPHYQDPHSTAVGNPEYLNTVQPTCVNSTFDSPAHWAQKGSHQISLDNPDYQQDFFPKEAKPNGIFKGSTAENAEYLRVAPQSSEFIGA

[3] = target: T3, ERBB2 (Homo sapiens, UniProt P04626); assay: KINOMEscan ScanTK; type: binding; details: ERBB2
T3 construct: purchased Eurofins DiscoverX KINOMEscan (scanTK)

[4] = target: T4, ABL1(Q252H)-phosphorylated (Homo sapiens, UniProt P00519, Q252H); assay: KINOMEscan ScanTK; type: binding; details: for difference in %Control versus reference Ib at 1 µM: read-out: % difference (compound - Ib %Control)
T4 construct: purchased Eurofins DiscoverX KINOMEscan (scanTK)

[5] = target: T5, FRK (Homo sapiens, UniProt P42685); assay: KINOMEscan ScanTK; type: binding
T5 construct: purchased Eurofins DiscoverX KINOMEscan (scanTK)
T5 sequence (P42685 whole entry): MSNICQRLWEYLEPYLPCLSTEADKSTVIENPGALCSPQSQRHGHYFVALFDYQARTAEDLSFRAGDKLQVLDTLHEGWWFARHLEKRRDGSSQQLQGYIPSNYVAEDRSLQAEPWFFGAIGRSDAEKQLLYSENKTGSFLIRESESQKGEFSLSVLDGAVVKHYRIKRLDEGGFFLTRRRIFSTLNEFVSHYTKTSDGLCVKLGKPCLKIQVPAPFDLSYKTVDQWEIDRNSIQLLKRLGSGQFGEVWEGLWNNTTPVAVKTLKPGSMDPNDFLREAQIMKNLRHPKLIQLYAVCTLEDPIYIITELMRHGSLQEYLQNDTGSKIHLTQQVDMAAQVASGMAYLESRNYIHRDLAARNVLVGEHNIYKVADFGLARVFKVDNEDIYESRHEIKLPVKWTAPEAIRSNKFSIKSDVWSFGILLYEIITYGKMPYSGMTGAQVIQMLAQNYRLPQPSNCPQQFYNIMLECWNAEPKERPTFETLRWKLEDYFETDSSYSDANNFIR

[6] = target: T6, ITK, full length (Homo sapiens, UniProt Q08881); assay: PhosphoSens enzymatic IC50 (AssayQuant)
T6 sequence (Q08881 1-620): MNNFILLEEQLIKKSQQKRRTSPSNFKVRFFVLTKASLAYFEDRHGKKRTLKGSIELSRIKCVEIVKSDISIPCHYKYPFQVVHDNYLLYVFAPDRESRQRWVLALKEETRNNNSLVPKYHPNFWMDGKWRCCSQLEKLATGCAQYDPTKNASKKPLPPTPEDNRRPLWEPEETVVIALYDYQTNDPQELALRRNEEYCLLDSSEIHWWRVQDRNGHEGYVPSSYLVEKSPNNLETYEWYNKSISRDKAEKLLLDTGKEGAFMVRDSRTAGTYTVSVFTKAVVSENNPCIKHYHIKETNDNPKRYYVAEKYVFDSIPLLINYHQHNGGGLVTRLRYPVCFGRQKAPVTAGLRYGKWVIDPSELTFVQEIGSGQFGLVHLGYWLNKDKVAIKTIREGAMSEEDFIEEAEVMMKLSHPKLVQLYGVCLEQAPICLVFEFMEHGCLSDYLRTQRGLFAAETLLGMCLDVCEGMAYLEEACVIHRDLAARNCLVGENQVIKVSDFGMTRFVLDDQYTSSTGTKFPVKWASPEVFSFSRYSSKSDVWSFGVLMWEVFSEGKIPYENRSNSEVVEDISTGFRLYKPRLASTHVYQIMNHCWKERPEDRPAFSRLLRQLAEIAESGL
Excerpt: Biochemical enzymatic IC50 data were generated by AssayQuant Technologies (Marlborough, MA) using the PhosphoSens Platform. […] Reaction rate versus log [inhibitor concentration] data were fitted to the four-parameter logistic equation [drawing 1]

[7] = target: T7, HCK (Homo sapiens, UniProt P08631); assay: KINOMEscan ScanTK; type: binding
T7 construct: purchased Eurofins DiscoverX KINOMEscan (scanTK)
T7 sequence (P08631 whole entry): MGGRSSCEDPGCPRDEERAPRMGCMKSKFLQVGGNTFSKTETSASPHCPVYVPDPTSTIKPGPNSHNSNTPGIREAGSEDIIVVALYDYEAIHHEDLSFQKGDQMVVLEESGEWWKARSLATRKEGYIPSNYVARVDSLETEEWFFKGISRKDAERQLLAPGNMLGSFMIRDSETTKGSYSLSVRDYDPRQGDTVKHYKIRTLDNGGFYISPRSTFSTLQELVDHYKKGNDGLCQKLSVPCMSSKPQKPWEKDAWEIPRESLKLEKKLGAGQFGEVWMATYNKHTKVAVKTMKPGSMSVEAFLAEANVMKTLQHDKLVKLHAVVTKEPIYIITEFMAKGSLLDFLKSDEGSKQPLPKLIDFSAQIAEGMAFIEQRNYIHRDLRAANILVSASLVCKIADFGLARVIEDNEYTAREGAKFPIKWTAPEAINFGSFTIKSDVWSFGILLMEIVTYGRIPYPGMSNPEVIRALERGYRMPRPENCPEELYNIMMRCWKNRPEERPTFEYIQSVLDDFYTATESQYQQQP

[8] = target: T8, KIT(D816H) (Homo sapiens, UniProt P10721, D816H); assay: KINOMEscan ScanTK; type: binding
T8 construct: purchased Eurofins DiscoverX KINOMEscan (scanTK)
T8 sequence (P10721 26-976 D816H): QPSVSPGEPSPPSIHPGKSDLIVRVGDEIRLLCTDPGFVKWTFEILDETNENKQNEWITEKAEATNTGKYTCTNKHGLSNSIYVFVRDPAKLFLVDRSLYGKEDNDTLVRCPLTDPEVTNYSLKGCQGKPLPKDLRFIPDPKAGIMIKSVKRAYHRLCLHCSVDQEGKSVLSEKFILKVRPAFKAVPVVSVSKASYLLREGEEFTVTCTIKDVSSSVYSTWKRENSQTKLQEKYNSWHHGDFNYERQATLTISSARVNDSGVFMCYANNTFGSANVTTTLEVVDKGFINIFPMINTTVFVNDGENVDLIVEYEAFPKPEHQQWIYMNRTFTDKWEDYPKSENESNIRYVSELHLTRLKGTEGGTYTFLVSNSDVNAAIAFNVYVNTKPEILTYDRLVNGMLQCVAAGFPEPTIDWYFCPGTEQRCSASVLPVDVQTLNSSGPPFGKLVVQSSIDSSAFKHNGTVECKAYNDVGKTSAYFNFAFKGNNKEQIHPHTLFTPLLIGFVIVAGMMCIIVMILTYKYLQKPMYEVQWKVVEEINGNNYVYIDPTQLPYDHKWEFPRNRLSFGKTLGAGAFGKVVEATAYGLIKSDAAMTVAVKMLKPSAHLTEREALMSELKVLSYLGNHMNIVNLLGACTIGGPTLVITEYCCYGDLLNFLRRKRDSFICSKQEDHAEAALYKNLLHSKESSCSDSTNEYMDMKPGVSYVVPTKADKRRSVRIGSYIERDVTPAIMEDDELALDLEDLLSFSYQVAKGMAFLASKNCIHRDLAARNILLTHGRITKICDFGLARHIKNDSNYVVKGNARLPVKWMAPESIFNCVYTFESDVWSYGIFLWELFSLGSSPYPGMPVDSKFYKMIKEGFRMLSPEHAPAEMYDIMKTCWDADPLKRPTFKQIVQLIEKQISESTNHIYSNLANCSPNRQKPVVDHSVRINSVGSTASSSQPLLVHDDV

[9] = target: T9, CSF1R-autoinhibited (Homo sapiens, UniProt P07333); assay: KINOMEscan ScanTK; type: binding
T9 construct: purchased Eurofins DiscoverX KINOMEscan (scanTK)
T9 sequence (P07333 539-972 limits assumed): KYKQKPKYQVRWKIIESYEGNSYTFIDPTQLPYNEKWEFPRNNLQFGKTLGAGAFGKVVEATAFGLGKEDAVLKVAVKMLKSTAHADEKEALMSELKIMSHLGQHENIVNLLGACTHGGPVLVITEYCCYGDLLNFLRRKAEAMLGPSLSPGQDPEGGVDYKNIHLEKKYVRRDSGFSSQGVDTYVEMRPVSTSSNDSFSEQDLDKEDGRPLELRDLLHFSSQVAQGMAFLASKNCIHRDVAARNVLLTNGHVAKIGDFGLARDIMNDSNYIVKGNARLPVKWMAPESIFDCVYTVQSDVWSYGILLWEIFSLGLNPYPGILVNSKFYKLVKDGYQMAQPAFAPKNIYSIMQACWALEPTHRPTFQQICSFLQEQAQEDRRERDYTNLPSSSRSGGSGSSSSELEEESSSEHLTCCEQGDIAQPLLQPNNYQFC

[10] = target: T10, FLT3(D835V) (Homo sapiens, UniProt P36888, D835V); assay: KINOMEscan ScanTK; type: binding
T10 construct: purchased Eurofins DiscoverX KINOMEscan (scanTK)
T10 sequence (P36888 27-993 D835V): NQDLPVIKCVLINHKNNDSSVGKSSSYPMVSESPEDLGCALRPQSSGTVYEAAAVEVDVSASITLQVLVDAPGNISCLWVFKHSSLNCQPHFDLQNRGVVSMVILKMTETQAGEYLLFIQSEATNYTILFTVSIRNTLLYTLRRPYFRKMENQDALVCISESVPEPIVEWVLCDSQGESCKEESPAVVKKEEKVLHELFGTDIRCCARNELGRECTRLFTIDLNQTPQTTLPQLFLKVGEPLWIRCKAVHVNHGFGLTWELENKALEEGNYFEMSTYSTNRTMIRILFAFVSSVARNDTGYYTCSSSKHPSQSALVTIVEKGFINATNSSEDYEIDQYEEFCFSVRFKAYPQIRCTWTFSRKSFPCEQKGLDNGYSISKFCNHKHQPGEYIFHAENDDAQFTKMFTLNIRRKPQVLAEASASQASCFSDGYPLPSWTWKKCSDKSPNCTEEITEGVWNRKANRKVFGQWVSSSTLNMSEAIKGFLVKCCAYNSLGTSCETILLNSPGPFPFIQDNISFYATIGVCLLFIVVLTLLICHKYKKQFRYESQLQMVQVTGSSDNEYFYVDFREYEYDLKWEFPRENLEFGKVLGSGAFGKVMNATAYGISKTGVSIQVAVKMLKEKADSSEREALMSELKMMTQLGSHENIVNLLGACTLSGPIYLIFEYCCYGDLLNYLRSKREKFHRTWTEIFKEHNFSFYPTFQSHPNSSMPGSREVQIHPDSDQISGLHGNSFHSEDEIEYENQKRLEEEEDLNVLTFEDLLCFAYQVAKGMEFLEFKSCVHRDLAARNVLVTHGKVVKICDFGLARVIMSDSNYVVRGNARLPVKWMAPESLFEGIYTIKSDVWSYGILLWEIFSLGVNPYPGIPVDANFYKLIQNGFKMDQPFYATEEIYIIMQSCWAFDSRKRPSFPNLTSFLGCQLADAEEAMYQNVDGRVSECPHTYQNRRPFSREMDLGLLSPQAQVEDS

[11] = target: T11, TRKA (Homo sapiens, UniProt P04629); assay: KINOMEscan ScanTK; type: binding; details: TRKA
T11 construct: purchased Eurofins DiscoverX KINOMEscan (scanTK)
T11 sequence (P04629 33-796): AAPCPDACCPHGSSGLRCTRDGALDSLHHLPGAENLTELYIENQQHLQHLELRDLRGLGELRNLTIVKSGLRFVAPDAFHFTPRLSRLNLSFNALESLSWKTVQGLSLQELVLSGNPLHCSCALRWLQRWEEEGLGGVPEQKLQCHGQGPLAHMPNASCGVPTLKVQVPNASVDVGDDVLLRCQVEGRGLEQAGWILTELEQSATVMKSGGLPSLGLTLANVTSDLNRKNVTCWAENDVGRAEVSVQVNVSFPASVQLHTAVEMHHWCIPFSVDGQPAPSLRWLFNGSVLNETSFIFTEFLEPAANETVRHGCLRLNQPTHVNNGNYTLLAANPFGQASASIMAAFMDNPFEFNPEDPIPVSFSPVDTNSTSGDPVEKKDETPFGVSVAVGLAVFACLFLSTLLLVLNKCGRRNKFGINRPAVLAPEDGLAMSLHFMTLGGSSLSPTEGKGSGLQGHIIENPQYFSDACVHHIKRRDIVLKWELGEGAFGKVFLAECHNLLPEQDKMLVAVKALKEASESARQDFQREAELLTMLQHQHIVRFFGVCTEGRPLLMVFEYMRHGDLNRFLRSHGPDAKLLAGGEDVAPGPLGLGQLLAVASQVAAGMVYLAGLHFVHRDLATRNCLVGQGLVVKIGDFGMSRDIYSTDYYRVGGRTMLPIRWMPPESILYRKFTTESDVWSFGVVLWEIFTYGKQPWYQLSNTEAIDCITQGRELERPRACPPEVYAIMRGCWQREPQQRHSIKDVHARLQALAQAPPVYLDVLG

T1 sequence (P12931 whole entry): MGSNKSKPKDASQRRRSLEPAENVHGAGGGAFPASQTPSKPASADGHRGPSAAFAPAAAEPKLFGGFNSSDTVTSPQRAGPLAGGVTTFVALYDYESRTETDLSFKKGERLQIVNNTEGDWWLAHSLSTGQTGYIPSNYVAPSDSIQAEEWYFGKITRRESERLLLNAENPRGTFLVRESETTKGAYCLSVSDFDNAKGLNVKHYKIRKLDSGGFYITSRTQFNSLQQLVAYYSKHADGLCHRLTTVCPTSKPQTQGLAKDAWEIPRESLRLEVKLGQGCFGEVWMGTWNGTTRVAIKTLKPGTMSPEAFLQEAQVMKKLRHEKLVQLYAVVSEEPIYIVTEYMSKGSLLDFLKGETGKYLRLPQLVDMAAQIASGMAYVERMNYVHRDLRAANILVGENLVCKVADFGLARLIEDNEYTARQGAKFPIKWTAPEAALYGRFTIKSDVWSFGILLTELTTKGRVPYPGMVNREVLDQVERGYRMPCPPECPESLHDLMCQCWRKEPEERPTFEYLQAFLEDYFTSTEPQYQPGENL

Compound: COC(=O)c1cnc(S(C)(=O)=O)nc1N1CCCC(n2nc(-c3ccc(Oc4ccccc4)cc3)c3c(N)ncnc32)C1 (stereo not shown) [Compound 8b, Methyl 4-(3-(4-Amino-3-(4-phenoxyphenyl)-1H-pyrazolo[3,4-d]pyrimidin-1-yl)piperidin-1-yl)-2-(methylsulfonyl)pyrimidine-5-carboxylate]
- remaining binding at 1 µM ([1]; @1000nM, read-out: %Control): 60%
- remaining binding at 1 µM ([1]; read-out: %Control @1000nM): 60%
- difference in % of control versus compound Ib at 1 µM ([2]; @1000nM): 41.5%
- remaining binding at 1 µM ([2]; @1000nM, read-out: %Control): 42%
- remaining binding at 1 µM ([2]; read-out: %Control @1000nM): 42%
- difference in %Control versus compound Ib at 1 µM ([3]; @1000nM): 41%
- remaining binding at 1 µM ([3]; @1000nM, read-out: %Control): 41%
- remaining binding at 1 µM ([3]; read-out: %Control @1000nM): 41%
- difference in %Control versus reference Ib at 1 µM ([4]; @1000nM): -2%
- remaining binding at 1 µM ([4]; @1000nM, read-out: %Control): 92%
- remaining binding at 1 µM ([4]; read-out: %Control @1000nM): 92%
- difference in %Control versus compound Ib at 1 µM ([5]; @1000nM): 69.7%
- remaining binding at 1 µM ([5]; @1000nM, read-out: %Control): 79%
- remaining binding at 1 µM ([5]; read-out: %Control @1000nM): 79%
- IC50 [6]: > 1000 nM
- difference in %Control from compound Ib at 1 µM ([7]; @1000nM): 10.8%
- remaining binding at 1 µM ([7]; @1000nM, read-out: %Control): 16%
- remaining binding at 1 µM ([7]; read-out: %Control @1000nM): 16%
- remaining binding at 1 µM ([8]; @1000nM, read-out: %Control): 98%
- remaining binding at 1 µM ([8]; read-out: %Control @1000nM): 98%
- difference in %Control versus compound Ib at 1 µM ([9]; @1000nM): 7%
- remaining binding at 1 µM ([9]; @1000nM, read-out: %Control): 84%
- remaining binding at 1 µM ([9]; read-out: %Control @1000nM): 84%
- difference in %Control versus compound Ib at 1 µM ([10]; @1000nM): 38.1%
- remaining binding at 1 µM ([10]; @1000nM, read-out: %Control): 48%
- remaining binding at 1 µM ([10]; read-out: %Control @1000nM): 48%
- difference in % of control versus compound Ib at 1 µM ([11]; @1000nM): 4%
- remaining binding at 1 µM ([11]; @1000nM, read-out: %Control): 89%
- remaining binding at 1 µM ([11]; read-out: %Control @1000nM): 89%

Compound: CNC(=O)c1cnc(S(C)(=O)=O)nc1N1CCCC(n2nc(-c3ccc(Oc4ccccc4)cc3)c3c(N)ncnc32)C1 (stereo not shown) [Compound 8d, 4-(3-(4-Amino-3-(4-phenoxyphenyl)-1H-pyrazolo[3,4-d]pyrimidin-1-yl)piperidin-1-yl)-N-methyl-2-(methylsulfonyl)pyrimidine-5-carboxamide]
- remaining binding at 1 µM ([1]; @1000nM, read-out: %Control): 43%
- remaining binding at 1 µM ([1]; read-out: %Control @1000nM): 43%
- difference in % of control versus compound Ib at 1 µM ([2]; @1000nM): 18.6%
- remaining binding at 1 µM ([2]; @1000nM, read-out: %Control): 19%
- remaining binding at 1 µM ([2]; read-out: %Control @1000nM): 19%
- difference in %Control versus compound Ib at 1 µM ([3]; @1000nM): 5.5%
- remaining binding at 1 µM ([3]; @1000nM, read-out: %Control): 5.5%
- remaining binding at 1 µM ([3]; read-out: %Control @1000nM): 5.5%
- difference in %Control versus reference Ib at 1 µM ([4]; @1000nM): -1%
- remaining binding at 1 µM ([4]; @1000nM, read-out: %Control): 93%
- remaining binding at 1 µM ([4]; read-out: %Control @1000nM): 93%
- difference in %Control versus compound Ib at 1 µM ([5]; @1000nM): 33.7%
- remaining binding at 1 µM ([5]; @1000nM, read-out: %Control): 43%
- remaining binding at 1 µM ([5]; read-out: %Control @1000nM): 43%
- IC50 [6]: > 1000 nM
- difference in %Control from compound Ib at 1 µM ([7]; @1000nM): 6.8%
- remaining binding at 1 µM ([7]; @1000nM, read-out: %Control): 12%
- remaining binding at 1 µM ([7]; read-out: %Control @1000nM): 12%
- remaining binding at 1 µM ([8]; @1000nM, read-out: %Control): 50%
- remaining binding at 1 µM ([8]; read-out: %Control @1000nM): 50%
- difference in %Control versus compound Ib at 1 µM ([9]; @1000nM): 9%
- remaining binding at 1 µM ([9]; @1000nM, read-out: %Control): 86%
- remaining binding at 1 µM ([9]; read-out: %Control @1000nM): 86%
- difference in %Control versus compound Ib at 1 µM ([10]; @1000nM): 13.1%
- remaining binding at 1 µM ([10]; @1000nM, read-out: %Control): 23%
- remaining binding at 1 µM ([10]; read-out: %Control @1000nM): 23%
- difference in % of control versus compound Ib at 1 µM ([11]; @1000nM): -2%
- remaining binding at 1 µM ([11]; @1000nM, read-out: %Control): 83%
- remaining binding at 1 µM ([11]; read-out: %Control @1000nM): 83%
